Laboratory results taken from paper PMC4879574, “Identification of Leishmania donovani Topoisomerase 1 inhibitors via intuitive scaffold hopping and bioisosteric modification of known Top 1 inhibitors” (Scientific Reports, 2016).
Where “and” joins values, the source holds several entries; their conditions need not be identical. Identical values can stand only once. Like-named read-outs stand apart in the source and are kept apart here.

Legend:
[1] = Cytotoxicity on mammalian COS7 cell lines; type: cell-based; conditions: African green monkey, COS7 cells
[2] = tested on: COS7 cells; experiment: Cytotoxicity on mammalian COS7 cell lines; type: cell-based
[3] = tested on: L. donovani AG83 promastigotes; experiment: MTT assay on extracellular promastigotes; type: cell-based; conditions: Leishmania donovani, 12 h, read-out: Anti-promastigote activity IC50
Experimental: Next, compound 4 was screened against extracellular promastigotes.
L. donovani AG83 promastigotes (3.0 × 10^6 cells/ml) are incubated with different concentrations of drugs/compounds under study (1, 2, 5, 10 and 20 μM) for 12 h, following which the survival percentage is estimated by MTT assay. Yellow MTT (3-(4,5-dimethylthiazol- 2-yl)-2,5-diphenyltetrazolium bromide, a tetrazole) is reduced to purple formazan in the mitochondria of living cells. The formazan is then solubilized, and the concentration is determined by optical density at 570 nm. Metabolically active cells convert MTT to formazan, thereby generating a quantitative measure of viability and cytotoxicity. Percentage of viable promastigotes in each treatment groups are determined with respect to untreated control cells.

[4] = target: Leishmania donovani Topoisomerase 1 (LdTop1) (Leishmania donovani, UniProt A0A3Q8IHS4+Q8WQM6); experiment: Plasmid DNA relaxation assay, LdTop1 (simultaneous incubation); type: biochemical
Experimental: To investigate the inhibitory effect of our library compounds on the DNA relaxation activity of the recombinant Human and Leishmania topoisomerase 1 (Table 2), assays were performed involving supercoiled plasmid DNA, the enzymes (HTop1 and LdTop1) and our molecules. The enzymes were purified by the standard literature procedure.
(§1) All the experiments were conducted thrice and representative data from once set of them are expressed as mean ± SD.
(§2) The type I DNA topoisomerase are assayed by decreased mobility of the relaxed isomers of supercoiled pBS (SK^+) [pBlue-script (SK^+)] DNA in agarose gel. The relaxation assay was carried out as described previously with LdTop1B and HTop I, diluted in the relaxation buffer (25 mM Tris–HCl, pH 7.5, 5% glycerol, 0.5 mM DTT, 10 mM MgCl2, 50 mM KCl, […] and […] BSA) and supercoiled plasmid pBS (SK^+) DNA (85–95% were negatively supercoiled, with remainder being nicked circles)[9][28][29]. The reconstituted enzyme LdTop1B was assayed at 50 mM KCl concentration as described before. For all kinetic studies, the reaction mixtures containing the buffer and DNA were heated to 37 °C before addition of the enzymes. The reactions were rapidly quenched using stop solution and kept on ice. The gels were stained with ethidium bromide (EtBr) ([…]) and the amount of supercoiled monomer DNA band fluorescence were quantified by integration using Gel Doc 2000 under UV illumination (Bio-Rad Quantity One Software), as described previously.
Cells harvested from 1 litre of culture were separately lysed by lysozyme/sonication, and the proteins were purified through Ni-NTA (Ni^2+-nitriloacetate-agarose column (Qiagen, Hilden, Germany) followed by a phospho-cellulose column (P11 cellulose; Whatman, Maidstone Kent, UK) as described previously. Finally, the purified proteins LdTOP1L and LdTOP1S were stored at −70 °C. The concentrations of each protein were quantified by using Bradford Reagent (PIERCE, Thermo Fisher Scientific Inc., Rockford, USA). Purified LdTOP1L was mixed with purified LdTOP1S at a molar ratio of 1:1 to a total protein concentration of 0.5 mg/ml in reconstitution buffer [50 mM potassium phosphate, pH 7.5, 0.5 mM DTT, 1 mM EDTA, 0.1 mM PMSF and 10% (v/v) glycerol]. The mixture was dialyzed overnight at 4 °C and dialyzed fractions were used for plasmid relaxation activity.

[5] = target: LdTop1 (Leishmania donovani, UniProt A0A3Q8IHS4+Q8WQM6); experiment: Preincubation DNA relaxation inhibition assay, LdTop1; type: biochemical
Experimental: To interrogate whether compound 4 interacts with the enzyme, it was preincubated with LdTop1 at different concentration for 5 minutes at 37 °C before the addition of substrate DNA (Fig. 9a).
as §1, §2

LdTop1, sequence (Q8WQM6 entry or part of it): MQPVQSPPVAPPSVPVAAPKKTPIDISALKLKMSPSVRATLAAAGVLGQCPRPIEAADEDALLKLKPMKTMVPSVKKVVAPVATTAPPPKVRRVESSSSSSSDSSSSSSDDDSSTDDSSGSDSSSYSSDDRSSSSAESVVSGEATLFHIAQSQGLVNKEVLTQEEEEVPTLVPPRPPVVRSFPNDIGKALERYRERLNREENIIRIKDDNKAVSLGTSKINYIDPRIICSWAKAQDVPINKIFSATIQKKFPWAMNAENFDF
LdTop1, sequence (A0A3Q8IHS4 entry or part of it): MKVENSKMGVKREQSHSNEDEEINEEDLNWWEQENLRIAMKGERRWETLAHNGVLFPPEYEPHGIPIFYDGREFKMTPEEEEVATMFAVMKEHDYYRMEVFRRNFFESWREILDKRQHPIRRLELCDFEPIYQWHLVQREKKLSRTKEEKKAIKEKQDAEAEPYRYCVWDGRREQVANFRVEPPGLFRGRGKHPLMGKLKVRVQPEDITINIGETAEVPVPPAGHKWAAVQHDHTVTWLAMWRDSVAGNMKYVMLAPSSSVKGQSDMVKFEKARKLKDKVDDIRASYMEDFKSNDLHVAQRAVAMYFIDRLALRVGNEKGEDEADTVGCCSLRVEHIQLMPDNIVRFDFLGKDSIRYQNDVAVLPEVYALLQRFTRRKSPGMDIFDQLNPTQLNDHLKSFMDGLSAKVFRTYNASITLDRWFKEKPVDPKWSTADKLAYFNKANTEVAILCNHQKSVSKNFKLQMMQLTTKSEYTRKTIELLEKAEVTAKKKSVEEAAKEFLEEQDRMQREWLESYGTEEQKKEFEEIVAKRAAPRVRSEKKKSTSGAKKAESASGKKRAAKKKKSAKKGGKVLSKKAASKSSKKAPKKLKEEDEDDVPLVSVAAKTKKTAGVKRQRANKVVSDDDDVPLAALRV
Leishmania donovani Topoisomerase 1 (LdTop1), sequence (Q8WQM6 entry or part of it): as the sequence (Q8WQM6 entry or part of it) above
Leishmania donovani Topoisomerase 1 (LdTop1), sequence (A0A3Q8IHS4 entry or part of it): as the sequence (A0A3Q8IHS4 entry or part of it) above

IC50 [3]: 4.21 ± 0.21 µM | inhibition at 12.5 µM ([4]; LdTop1 relaxation, 12.5 uM, read-out: % inhibition, mean data): 97.2% | inhibition at 25 µM ([4]; LdTop1 relaxation, 25 uM, read-out: % inhibition, mean data): 99.9% | % inhibition (CPT 100%), data 2 ([4]; LdTop1 relaxation, 50 uM): 100.001% | inhibition at 50 µM ([4]; LdTop1 relaxation, 50 uM, read-out: % inhibition, mean data): 100% | % inhibition (CPT 100%), data 2 ([4]; LdTop1 relaxation, 100 uM): 100.003% | inhibition at 100 µM ([4]; LdTop1 relaxation, 100 uM, read-out: % inhibition, mean data): 100% | EC50 ([4]; incubated simultaneously with LdTop1 and supercoiled DNA, read-out: EC50, simultaneous assay): 3.77 ± 0.27 µM | LdTop1 inhibitory activity ([4]; plasmid DNA relaxation): considerable activity | EC50 ([4]; plasmid DNA relaxation, averages of three experiments, read-out: LDTop1 inhibition (EC50)): 4 µM and 3.51 µM | inhibition at 12.5 µM ([4]; read-out: % inhibition (CPT 100%), data 1, LdTop1 relaxation, 12.5 uM): 97.3% | inhibition at 25 µM ([4]; read-out: % inhibition (CPT 100%), data 1, LdTop1 relaxation, 25 uM): 99.9% | inhibition at 50 µM ([4]; read-out: % inhibition (CPT 100%), data 1, LdTop1 relaxation, 50 uM): 100% | inhibition at 100 µM ([4]; read-out: % inhibition (CPT 100%), data 1, LdTop1 relaxation, 100 uM): 100% | inhibition at 0.62 µM ([4]; read-out: % inhibition (CPT 100%), data 1, simultaneous, 0.62 uM): 7.36% | inhibition at 1.25 µM ([4]; read-out: % inhibition (CPT 100%), data 1, simultaneous, 1.25 uM): 23.5% | inhibition at 2.5 µM ([4]; read-out: % inhibition (CPT 100%), data 1, simultaneous, 2.5 uM): 42.8% | inhibition at 5 µM ([4]; read-out: % inhibition (CPT 100%), data 1, simultaneous, 5 uM): 60.1% | inhibition at 10 µM ([4]; read-out: % inhibition (CPT 100%), data 1, simultaneous, 10 uM): 88.3% | inhibition at 20 µM ([4]; read-out: % inhibition (CPT 100%), data 1, simultaneous, 20 uM): 91.6% | inhibition at 12.5 µM ([4]; read-out: % inhibition (CPT 100%), data 2, LdTop1 relaxation, 12.5 uM): 97.1% | inhibition at 25 µM ([4]; read-out: % inhibition (CPT 100%), data 2, LdTop1 relaxation, 25 uM): 99.9% | inhibition at 50 µM ([4]; read-out: % inhibition (CPT 100%), data 2, LdTop1 relaxation, 50 uM): 100% | inhibition at 100 µM ([4]; read-out: % inhibition (CPT 100%), data 2, LdTop1 relaxation, 100 uM): 100% | inhibition at 0.62 µM ([4]; read-out: % inhibition (CPT 100%), data 2, simultaneous, 0.62 uM): 8.88% | inhibition at 1.25 µM ([4]; read-out: % inhibition (CPT 100%), data 2, simultaneous, 1.25 uM): 22.5% | inhibition at 2.5 µM ([4]; read-out: % inhibition (CPT 100%), data 2, simultaneous, 2.5 uM): 43.7% | inhibition at 5 µM ([4]; read-out: % inhibition (CPT 100%), data 2, simultaneous, 5 uM): 60.9% | inhibition at 10 µM ([4]; read-out: % inhibition (CPT 100%), data 2, simultaneous, 10 uM): 86.5% | inhibition at 20 µM ([4]; read-out: % inhibition (CPT 100%), data 2, simultaneous, 20 uM): 92.9% | inhibition at 0.62 µM ([4]; simultaneous, 0.62 uM, read-out: % inhibition, mean data): 8.12% | inhibition at 1.25 µM ([4]; simultaneous, 1.25 uM, read-out: % inhibition, mean data): 23% | inhibition at 2.5 µM ([4]; simultaneous, 2.5 uM, read-out: % inhibition, mean data): 43.3% | inhibition at 5 µM ([4]; simultaneous, 5 uM, read-out: % inhibition, mean data): 60.5% | inhibition at 10 µM ([4]; simultaneous, 10 uM, read-out: % inhibition, mean data): 87.4% | % inhibition, mean data ([4]; simultaneous, 20 uM): 92.2648% | inhibition at 20 µM ([4]; simultaneous, 20 uM, read-out: % inhibition, mean data): ~92% | EC50 ([4]; supplement sheet, simultaneous, concentrations in uM, read-out: EC50 of 4-Sim): 3.77 µM | inhibition at 0.62 µM ([5]; pre-incubation, 0.62 uM, read-out: % inhibition, mean data): 27.4% | inhibition at 1.25 µM ([5]; pre-incubation, 1.25 uM, read-out: % inhibition, mean data): 49% | inhibition at 2.5 µM ([5]; pre-incubation, 2.5 uM, read-out: % inhibition, mean data): 65.9% | inhibition at 5 µM ([5]; pre-incubation, 5 uM, read-out: % inhibition, mean data): 91.2% | inhibition at 10 µM ([5]; pre-incubation, 10 uM, read-out: % inhibition, mean data): 97.4% | inhibition at 20 µM ([5]; pre-incubation, 20 uM, read-out: % inhibition, mean data): ~100% | EC50 ([5]; preincubated with LdTop1 5 min 37 °C before DNA, read-out: EC50, preincubation assay): 1.72 ± 0.23 µM | inhibition at 0.62 µM ([5]; read-out: % inhibition (CPT 100%), data 1, pre-incubation, 0.62 uM): 27.1% | inhibition at 1.25 µM ([5]; read-out: % inhibition (CPT 100%), data 1, pre-incubation, 1.25 uM): 48.2% | inhibition at 2.5 µM ([5]; read-out: % inhibition (CPT 100%), data 1, pre-incubation, 2.5 uM): 67.4% | inhibition at 5 µM ([5]; read-out: % inhibition (CPT 100%), data 1, pre-incubation, 5 uM): 91.4% | inhibition at 10 µM ([5]; read-out: % inhibition (CPT 100%), data 1, pre-incubation, 10 uM): 97.2% | inhibition at 20 µM ([5]; read-out: % inhibition (CPT 100%), data 1, pre-incubation, 20 uM): 100% | inhibition at 0.62 µM ([5]; read-out: % inhibition (CPT 100%), data 2, pre-incubation, 0.62 uM): 27.7% | inhibition at 1.25 µM ([5]; read-out: % inhibition (CPT 100%), data 2, pre-incubation, 1.25 uM): 49.8% | inhibition at 2.5 µM ([5]; read-out: % inhibition (CPT 100%), data 2, pre-incubation, 2.5 uM): 64.5% | inhibition at 5 µM ([5]; read-out: % inhibition (CPT 100%), data 2, pre-incubation, 5 uM): 91% | inhibition at 10 µM ([5]; read-out: % inhibition (CPT 100%), data 2, pre-incubation, 10 uM): 97.5% | inhibition at 20 µM ([5]; read-out: % inhibition (CPT 100%), data 2, pre-incubation, 20 uM): 100% | EC50 ([5]; supplement sheet, pre-incubation, concentrations in uM, read-out: EC50 of 4-PI): 1.72 µM
Compound: Cc1cc2c(c(=O)[nH]1)C(=O)O/C2=C\c1ccc(O)c(O)c1 [Compound 4]
CC50 [1]: 390.6 ± 3.15 µM | Selectivity Index (SI) ([2]; CC50 against COS7/IC50 against promastigote): ~100 | Cytotoxicity against COS7 ([2]; COS7): no cytotoxicity
